Where two headings read alike, the source gives them in different places. No end group written: not given here.
Legend:
Test in all cases: biochemical
Format in all cases: binding
HLA-DR DRB4*0101 (DR53) = HLA-DR DRB4*0101 (DR53) (Homo sapiens, UniProt P01903+P13762, G164S)
HLA-DR DRB1*1101 (DR11) = HLA-DR DRB1*1101 (DR11) (Homo sapiens, UniProt P01903+P01911, A100R/A169T/A87E/I96F/K41T/L162R/M171V/P40S/Q125H/Q178H/Q39Y/Q99D/R42S/S66Y/T262R/V115G/W38E)
HLA-DR DRB1*0901 (DR9) = HLA-DR DRB1*0901 (DR9) (Homo sapiens, UniProt P01903+P01911, A100R/A103E/D57H/D86V/F55Y/F60I/F76Y/I96F/K127E/L162R/M171V/P40D/Q125H/Q99R/R33Q/R42F/S133A/S66N/T210M/V115G/W38K/Y107V/Y59G/Y89S)
HLA-DR DRB1*0802 (DR8) = HLA-DR DRB1*0802 (DR8) (Homo sapiens, UniProt P01903+P01911, A100R/A103L/A169T/F76Y/H45Y/I96F/K41T/L162R/M171V/P40S/Q125H/Q178H/Q39Y/Q99D/R218S/R42G/S66Y/V115G/W38E)
HLA-DR DRB1*1501 (DR15) = HLA-DR DRB1*1501 (DR15) (Homo sapiens, UniProt P01903+P01911)
HLA-DR DRB1*0401 (DR4) = HLA-DR DRB1*0401 (DR4) (Homo sapiens, UniProt P01903+P01911, A100K/A169T/F76Y/I96L/K127E/L162R/M171V/N62H/P40V/Q125Y/R42H/S133A/S149N/S66Y/V115G/V209L/W38E)
HLA-DR DRB5*0101 (DR51) = HLA-DR DRB5*0101 (DR51) (Homo sapiens, UniProt P01903+Q30154); conditions: DRB5 *0101
HLA-DR DRB1*0701 (DR7) = HLA-DR DRB1*0701 (DR7) (Homo sapiens, UniProt P01903+P01911, A100R/A102G/A103Q/D57E/D86V/E43K/F76Y/K127E/L162R/M171V/P40G/Q125H/Q99D/R33Q/R42Y/R54Q/S133A/S66F/T210M/V115G/Y107V/Y59L/Y89S)
HLA-DR DRB1*0101 (DR1) = HLA-DR DRB1*0101 (DR1) (Homo sapiens, UniProt P01903+P01911, A100R/D57E/F55L/F60I/F76Y/I96L/L162R/M171V/P40L/Q125E/R42F/V115G/Y59C)
HLA-DR DRB1*0405 (DR4) = HLA-DR DRB1*0405 (DR4) (Homo sapiens, UniProt P01903+P01911, A100R/A169T/D86S/F76Y/I96L/K127E/L162R/M171V/N62H/P40V/Q125Y/R42H/S133A/S149N/S66Y/V115G/V209L/W38E)
HLA-DR DRB1*1302 (DR13) = HLA-DR DRB1*1302 (DR13) (Homo sapiens, UniProt P01903+P01911, A100E/A169T/K41T/L162R/M171V/P40S/Q125H/Q178H/Q39Y/Q99D/R42S/S66N/T262R/V115G/W38E/Y61H)
HLA-DR DRB1*0301 (DR3) = HLA-DR DRB1*0301 (DR3) (Homo sapiens, UniProt P01903+P01911, A100K/A102G/A103R/A169T/F55Y/I96L/K41T/L162R/M171V/P40S/Q125H/Q178H/Q39Y/R42S/S66N/T106N/T262R/W38E/Y61H); conditions: read-out: DRB1 *0301
HLA-DR DRB3*0101 (DR52) = HLA-DR DRB3*0101 (DR52) (Homo sapiens, UniProt P01903+P79483)

Chain of HLA-DR DRB1*1101 (DR11) (P01903 26-254 limits assumed, other chains not shown): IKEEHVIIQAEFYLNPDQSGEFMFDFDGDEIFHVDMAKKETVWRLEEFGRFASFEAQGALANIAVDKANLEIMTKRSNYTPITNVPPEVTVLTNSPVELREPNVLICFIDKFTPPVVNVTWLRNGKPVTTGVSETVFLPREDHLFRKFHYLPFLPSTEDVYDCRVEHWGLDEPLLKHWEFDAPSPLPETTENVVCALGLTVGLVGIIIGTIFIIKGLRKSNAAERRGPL
Chain of HLA-DR DRB1*1302 (DR13) (P01903 26-254 limits assumed, other chains not shown): as above
Chain of HLA-DR DRB1*0301 (DR3) (P01903 26-254 limits assumed, other chains not shown): as above

AYVLLSEKKISSIQS gave an IC50 (HLA-DR DRB4*0101 (DR53); DRB4 *0101) of 0.902 µM, an IC50 (HLA-DR DRB1*1101 (DR11); DRB1 *1101) of 0.051 µM and an IC50 (HLA-DR DRB1*0901 (DR9); DRB1 *0901) of 3.34 µM. The IC50 (HLA-DR DRB1*0802 (DR8)) was 0.027 µM, the IC50 (HLA-DR DRB1*1501 (DR15); DRBI *1501) was 0.489 µM and the IC50 (HLA-DR DRB1*0401 (DR4); DRB1 *0401) was 0.943 µM. The IC50 (HLA-DR DRB5*0101 (DR51)) was 4.52 µM, the IC50 (HLA-DR DRB1*0701 (DR7); DRB1 *0701) was 3.85 µM and the IC50 (HLA-DR DRB1*0101 (DR1); DRB1 *0101) was 0.078 µM. For the same compound, the IC50 (HLA-DR DRB1*0405 (DR4); DRB1 *0405) was 9.47 µM and the IC50 (HLA-DR DRB1*1302 (DR13); DRBI *1302) was 0.816 µM.

With `CC[C@H](C)[C@H](N)C(=O)N[C@@H](C)C(=O)NCC(=O)N[C@@H](CC(C)C)C(=O)N[C@@H](Cc1ccccc1)C(=O)N[C@@H](CC(C)C)C(=O)N[C@H](C(=O)N[C@H](C(=O)N[C@@H](CCC(=O)O)C(=O)N[C@@H](C)C(=O)N[C@H](C(=O)N[C@H](C(=O)N[C@@H](C)C(=O)N[C@@H](CC(=O)O)C(=O)N[C@@H](CCCCN)C(=O)O)C(C)C)C(C)C)[C@@H](C)O)[C@@H](C)O` the IC50 (HLA-DR DRB4*0101 (DR53)) was greater than 26.4 µM, the IC50 (HLA-DR DRB1*1101 (DR11)) was 0.867 µM and the IC50 (HLA-DR DRB1*0901 (DR9)) was 0.409 µM. For the same compound, the IC50 (HLA-DR DRB1*0802 (DR8)) was 3.89 µM, the IC50 (HLA-DR DRB1*1501 (DR15)) was greater than 50.8 µM and the IC50 (HLA-DR DRB1*0401 (DR4)) was 0.013 µM. The IC50 (HLA-DR DRB1*0701 (DR7)) was 0.23 µM, the IC50 (HLA-DR DRB1*0101 (DR1)) was 0.0068 µM and the IC50 (HLA-DR DRB1*0405 (DR4)) was 0.067 µM. It also gave an IC50 (HLA-DR DRB1*1302 (DR13)) greater than 10.3 µM.

TLERPKTLSPQKNGV was tested, and the IC50 (HLA-DR DRB1*0301 (DR3)) was 134 µM, the IC50 (HLA-DR DRB1*0901 (DR9); read-out: DRB1 *0901) was greater than 300 µM and the IC50 (HLA-DR DRB1*0802 (DR8); read-out: DRB1 *0802) was greater than 75.4 µM. The IC50 (HLA-DR DRB1*0401 (DR4); read-out: DRB1 *0401) was greater than 22.5 µM, the IC50 (HLA-DR DRB1*0701 (DR7); read-out: DRB1 *0701) was 26 µM and the IC50 (HLA-DR DRB1*0405 (DR4); read-out: DRB1 *0405) was greater than 28.6 µM.

With DFSYLQDSDPDSFQD the IC50 (HLA-DR DRB1*0901 (DR9); DRB1 *0901) was greater than 107 µM, the IC50 (HLA-DR DRB1*0802 (DR8)) was greater than 61.2 µM and the IC50 (HLA-DR DRB1*1501 (DR15); DRBI *1501) was greater than 91 µM. It also gave an IC50 (HLA-DR DRB1*0401 (DR4); DRB1 *0401) of 0.264 µM, an IC50 (HLA-DR DRB5*0101 (DR51)) greater than 40 µM and an IC50 (HLA-DR DRB1*0701 (DR7); DRB1 *0701) greater than 250 µM. It also gave an IC50 (HLA-DR DRB1*0405 (DR4); DRB1 *0405) greater than 127 µM and an IC50 (HLA-DR DRB1*1302 (DR13); DRBI *1302) greater than 35 µM.

GAPLGGAARALAHGV showed an IC50 (HLA-DR DRB1*1101 (DR11); DRB1 *1101) of 0.024 µM, an IC50 (HLA-DR DRB3*0101 (DR52)) greater than 71 µM and an IC50 (HLA-DR DRB1*1501 (DR15); DRBI *1501) of 1.61 µM. For the same compound, the IC50 (HLA-DR DRB5*0101 (DR51)) was 12 µM, the IC50 (HLA-DR DRB1*0101 (DR1); DRB1 *0101) was 0.69 µM and the IC50 (HLA-DR DRB1*0405 (DR4); DRB1 *0405) was greater than 13 µM. The IC50 (HLA-DR DRB1*1302 (DR13); DRBI *1302) was 8.74 µM.

— patent publication US20060079453A1, “Hla binding peptides and their uses” (priority 2002, published 2006)
